# Assay results as given in ChEMBL document CHEMBL5380816, “Inclusion of Nitrofurantoin into the Realm of Cancer Chemotherapy via Biology-Oriented Synthesis and Drug Repurposing” (J Med Chem, 2023).
# Activity calls are given as the source filed them. The rule behind the calls is not given here.
# Key:
# [1] = system: MCF7; test: Induction of apoptosis in human MCF7 cells assessed as viable cells incubated at 0.097 uM for 72 hrs by annexin V-FITC based propidium iodide dual staining assay (reference value: 99.9%); type: functional; conditions: read-out: Activity
# [2] = system: MCF7; test: Induction of apoptosis in human MCF7 cells assessed as early apoptotic cells incubated at 0.097 uM for 72 hrs by annexin V-FITC based propidium iodide dual staining assay (reference value: 0.06%); type: functional
# [3] = system: MCF7; test: Anticancer activity against human MCF7 cells assessed as cell shrinkage incubated at 0.097uM for 72 hrs by phase contrast inverted microscopic analysis; type: functional, cell-based
# [4] = system: Caco-2; test: Anticancer activity against human Caco-2 cells assessed as cell shrinkage incubated at 0.097uM for 72 hrs by phase contrast inverted microscopic analysis; type: functional, cell-based
# [5] = system: MCF7; test: Induction of apoptosis in human MCF7 cells assessed as caspase3/7 activation at 0.097 uM using caspase-glo 3/7 as substrate relative to control; type: functional
# [6] = system: Caco-2; test: Anticancer activity against human Caco-2 cells assessed as losing contact with neighbouring cells incubated at 0.11 uM for 72 hrs by phase contrast inverted microscopic analysis; type: functional, cell-based
# [7] = system: MCF7; test: Anticancer activity against human MCF7 cells assessed as absence of normal spindle shape incubated at 0.11 uM for 72 hrs by phase contrast inverted microscopic analysis; type: functional, cell-based
# [8] = system: HepG2; test: Induction of oxidative stress in human HepG2 cells assessed as cell death by measuring redox alteration fluorescence incubated at 0.027 uM for 72 hrs in presence of dihydro dichlorofluorescein diacetate by DCFH-DA based flow cytometric analysis relative to control; type: functional
# [9] = system: Caco-2; test: Induction of apoptosis in human Caco-2 cells assessed as late apoptotic cells incubated at 0.11 uM for 72 hrs by annexin V-FITC based propidium iodide dual staining assay (reference value: 0.02%); type: functional
# [10] = system: Caco-2; test: Induction of apoptosis in human Caco-2 cells assessed as early apoptotic cells incubated at 0.11 uM for 72 hrs by annexin V-FITC based propidium iodide dual staining assay (reference value: 0.07%); type: functional
# [11] = system: HeLa; test: Induction of apoptosis in human HeLa cells assessed as early apoptotic cells incubated at 0.11 uM for 72 hrs by annexin V-FITC based propidium iodide dual staining assay (reference value: 2.77%); type: functional
# [12] = system: HepG2; test: Anticancer activity against human HepG2 cells incubated for 24 hrs by MTT assay; type: functional, cell-based; conditions: HepG2, 24 h
# [13] = system: Calf thymus DNA; test: Induction of calf thymus DNA damage assessed as disrupted by DNA by measuring decrease in fluorescence intensity by EvaGreen based fluorescence plate reader analysis; type: nucleic-acid assay; conditions: Bos taurus; dose <= 500.0 µM
# [14] = system: dsDNA; test: Induction of damage in dsDNA (unknown origin) assessed as DNA disruption by measuring damage constant at 100 uM incubated for 2.5 hrs by EvaGreen based fluorescence plate reader analysis; type: nucleic-acid assay
# [15] = system: dsDNA; test: Induction of damage in dsDNA (unknown origin) assessed as DNA disruption by measuring fluorescence intensity at 100 uM incubated for 2.5 hrs by EvaGreen based fluorescence plate reader analysis; type: nucleic-acid assay
# [16] = system: HepG2; test: Induction of apoptosis in human HepG2 cells assessed as pro-oxidant effect by measuring free radical generation measured at 0.11 uM after 72 hrs; type: functional, cell-based
# [17] = system: HeLa; test: Anticancer activity against human HeLa cells assessed as absence of normal spindle shape incubated at 0.11 uM for 72 hrs by phase contrast inverted microscopic analysis; type: functional, cell-based
# [18] = system: MCF7; test: Anticancer activity against human MCF7 cells assessed as round cells incubated at 0.11 uM for 72 hrs by phase contrast inverted microscopic analysis; type: functional, cell-based
# [19] = system: HepG2; test: Induction of apoptosis in human HepG2 cells assessed as early apoptotic cells incubated at 0.11 uM for 72 hrs by annexin V-FITC based propidium iodide dual staining assay (reference value: 1.74%); type: functional
# [20] = system: HepG2; test: Induction of apoptosis in human HepG2 cells assessed as total apoptotic cells incubated at 0.11 uM for 72 hrs by annexin V-FITC based propidium iodide dual staining assay (reference value: 0.99 +/- 0.02%); type: functional
# [21] = system: MCF7; test: Induction of apoptosis in human MCF7 cells assessed as late apoptotic cells incubated at 0.098 uM for 72 hrs by annexin V-FITC based propidium iodide dual staining assay (reference value: 0.01%); type: functional
# [22] = system: Caco-2; test: Induction of apoptosis in human Caco-2 cells assessed as late apoptotic cells by measuring orange to red patch incubated at 0.098 uM for 72 hrs by acridine orange-ethidium bromide dual staining based fluorescence microscopic analysis; type: functional, cell-based
# [23] = system: MCF7; test: Induction of apoptosis in human MCF7 cells assessed as necrotic cells incubated at 0.098 uM for 72 hrs by annexin V-FITC based propidium iodide dual staining assay (reference value: 0.03%); type: functional
# [24] = system: HeLa; test: Anticancer activity against human HeLa cells assessed as round cells incubated at 0.098uM for 72 hrs by phase contrast inverted microscopic analysis; type: functional, cell-based
# [25] = system: MCF7; test: Anticancer activity against human MCF7 cells assessed as absence of normal spindle shape incubated at 0.098uM for 72 hrs by phase contrast inverted microscopic analysis; type: functional, cell-based
# [26] = system: HeLa; test: Induction of oxidative stress in human HeLa cells assessed as cell death by measuring redox alteration fluorescence incubated at 0.11 uM for 72 hrs in presence of dihydro dichlorofluorescein diacetate by DCFH-DA based flow cytometric analysis relative to control; type: functional
# [27] = system: HeLa; test: Induction of apoptosis in human HeLa cells assessed as late apoptotic cells incubated at 0.098 uM for 72 hrs by annexin V-FITC based propidium iodide dual staining assay (reference value: 0%); type: functional
# [28] = system: Caco-2; test: Anticancer activity against human Caco-2 cells assessed as losing contact with neighbouring cells incubated at 0.098uM for 72 hrs by phase contrast inverted microscopic analysis; type: functional, cell-based
# [29] = system: HepG2; test: Anticancer activity against human HepG2 cells assessed as absence of normal spindle shape incubated at 0.098uM for 72 hrs by phase contrast inverted microscopic analysis; type: functional, cell-based
# [30] = system: HeLa; test: Anticancer activity against human HeLa cells assessed as losing contact with neighbouring cells incubated at 0.098uM for 72 hrs by phase contrast inverted microscopic analysis; type: functional, cell-based
# [31] = system: HepG2; test: Induction of apoptosis in human HepG2 cells assessed as early apoptotic cells incubated at 0.017 uM for 72 hrs by annexin V-FITC based propidium iodide dual staining assay (reference value: 1.74%); type: functional
# [32] = system: HeLa; test: Induction of apoptosis in human HeLa cells assessed as viable cells incubated at 0.017 uM for 72 hrs by annexin V-FITC based propidium iodide dual staining assay (reference value: 97.23%); type: functional; conditions: read-out: Activity
# [33] = system: HeLa; test: Induction of apoptosis in human HeLa cells assessed as late apoptotic cells incubated at 0.017 uM for 72 hrs by annexin V-FITC based propidium iodide dual staining assay (reference value: 0%); type: functional
# [34] = system: MCF7; test: Induction of apoptosis in human MCF7 cells assessed as viable cells incubated at 0.017 uM for 72 hrs by annexin V-FITC based propidium iodide dual staining assay (reference value: 99.9%); type: functional; conditions: read-out: Activity
# [35] = system: HeLa; test: Induction of apoptosis in human HeLa cells assessed as total apoptotic cells incubated at 0.017 uM for 72 hrs by annexin V-FITC based propidium iodide dual staining assay (reference value: 0 +/- 0.035%); type: functional
# [36] = system: Caco-2; test: Induction of apoptosis in human Caco-2 cells assessed as total apoptotic cells incubated at 0.017 uM for 72 hrs by annexin V-FITC based propidium iodide dual staining assay (reference value: 0.04 +/- 0.005%); type: functional
structure (smiles),measurement,setting,value
NS(=O)(=O)c1ccc(-n2cc(CN3C(=O)CN(/N=C/c4ccc([N+](=O)[O-])o4)C3=O)nn2)cc1,viability at 0.097 µM,[1],31.1%
same,Activity,[2],4.85%
same,Activity,[3],Active
same,Activity,[4],Active
same,Activity,[5],58%
C#CCN1C(=O)CN(/N=C/c2ccc([N+](=O)[O-])o2)C1=O,Activity,[6],Active
same,Activity,[7],Active
same,Activity,[8],54.19%
same,Activity,[9],42.24%
same,Activity,[10],4.84%
same,Activity,[11],9.44%
same,IC50,[12],117 µM
same,Activity,[13],Dose-Dependent Effect
same,Activity,[14],8.41
same,Activity,[15],27.2
same,Activity,[16],Active
same,Activity,[17],Active
same,Activity,[18],Active
same,Activity,[19],4.8%
same,Activity,[20],63.15%
O=C(CN1C(=O)CN(/N=C/c2ccc([N+](=O)[O-])o2)C1=O)c1ccc(Cl)cc1,Activity,[21],38.55%
same,Activity,[22],Active
same,Activity,[23],3.18%
same,Activity,[24],Active
same,Activity,[25],Active
same,Activity,[26],32.41%
same,Activity,[27],62.92%
same,Activity,[28],Active
same,Activity,[29],Active
same,Activity,[30],Active
O=c1[nH]cc(F)c(=O)[nH]1 [FLUOROURACIL],Activity,[31],7.69%
same,viability at 0.017 µM,[32],88.1%
same,Activity,[33],3.4%
same,viability at 0.017 µM,[34],90.9%
same,Activity,[35],4.29%
same,Activity,[36],3.68%
